According to patent publication EP0103895A2, “Novel hydroxylamine derivatives, production and use thereof” (MEIJI SEIKA KABUSHIKI KAISHA, priority 1982, dated 1984):
“And” between values parts separate entries of the source, which are not always exact repeats. Identical values can stand only once. Like-named read-outs stand apart in the source and are kept apart here.

Key:
[1] = system: fowl roundworm (As. galli); test: Anthelmintic test in chickens infected with fowl roundworm, single oral dose of 40 mg per Kg, worm bodies counted within 24 hours (Test Example E1); assay type: in vivo, Ascaridia galli; details: 40 mg per Kg oral in gelatin capsule; for inhibition in vivo at 40 mg/kg: Ascaridia galli, 24 h, chicken No.1, read-out: Anthelmintic effect after one day
Experimental: Chickens infected with fowl roundworm (As. galli) were employed in groups each consisting of five chickens. The compound provided for testing was orally administered in a quantity of 40 mg per Kg of body weight to each chicken in a gelatin capsule. The number of worm bodies discharged within 24 hours after administration of the medicine was counted. Then the chicken was killed, and the number of worm bodies remaining in the enteron was counted to determine the anthelmintic percentage, wherefrom the anthelmintic effect was judged.

[2] = system: fowl roundworm (As. galli); test: Anthelmintic test in chickens infected with fowl roundworm, compound added to feed at 250 ppm and 1,000 ppm, E.P.G. and worm count on 5th day (Test Example E2); assay type: in vivo, Ascaridia galli; details: for E.P.G. after 5 days: worm egg number in 1 g of fecal matter; for anthelmintic effect / inhibition in vivo at 250 ppm / inhibition in vivo at 1000 ppm: 5th day; for inhibition in vivo at 250 ppm / inhibition in vivo at 1000 ppm: Ascaridia galli, feed or water, 120 h, read-out: Anthelmintic effect
Experimental: Chickens infected with fowl roundworm (As. galli) were employed in groups each of two chickens.
The compound provided for the test was dissolved in a small amount of ethyl alcohol and adsorbed on defatted rice bran and added to chicken feed at levels of 250 ppm and 1,000 ppm. As control, a feed containing no such compound was employed.
Fecal matter testing was conducted before initiation of the test and on the 5th day after initiation of the test. The reduction in worm egg count was examined by calculating the E.P.G. (worm egg number in 1 g of fecal matter). The number of discharged worm bodies and the number of worm bodies remaining in the enteron when the chicken was killed on 5th day were counted to determined the anthelmintic percentage, from which the anthelmintic effect was judged.

[3] = system: fowl roundworm (Ascaridia galli); test: Anthelmintic test in chickens artificially infected with fowl roundworm, single oral dose in gelatin capsule, worm bodies counted within 48 hours (Test Examples A1, B1, C1, D1); assay type: in vivo; details: Ascaridia galli, po, 48 h, chicken, chickens No.1-3, read-out: Anthelmintic effect after 48 hours
Experimental: Chickens infected artificially with fowl roundworm (Ascaridia galli) were employed in groups each consisting of three chickens. Fecal matter testing was conducted before administration of medicine to confirm infection with the worm. The quantity of the compound provided for testing was 10 mg and 20 mg per Kg of body weight, which was orally administered each in a gelatin capsule to the chicken. The number of worm bodies discharged within 48 hours after administration of medicine was counted, the chicken was killed after 48 hours and the number of worm bodies remaining in the enteron was counted to determine the anthelmintic percentage, wherefrom the antihelmintic effect was judged.
The same as that in Test Example Al.
The same as that in Test Example Al except that the compound provided for testing was in quantities of 30 mg and 50 mg per Kg of body weight, which were orally administered to the chickens in gelatin capsules.
The same as that in Test Example Al, except that the compounds provided for testing were used in quantities of 15 mg and 30 mg per Kg of body weight, which were orally administered each in a gelatin capsule to the chicken.

[4] = system: fowl roundworm (As. galli); test: Anthelmintic test in chickens artificially infected with fowl roundworm, compound added to feed, E.P.G. and worm count up to 21st day (Test Examples A2, B2, C2, D2); assay type: in vivo, Ascaridia galli; details: chicken
Experimental: Chickens artificially infected with fowl roundworm (As. galli) were employed in groups each of two chickens.
Fecal matter testing was conducted before initiation of the test and on the 7th, 14th and 21st day after initiation of the test. Reduction in worm egg number was examined by calculating E.P.G. (worm eggs per 1 g of fecal matter), and the number of discharged worm bodies and the number of worm bodies remaining in the enteron when the chicken was killed on 21st day were counted to determine the anthelmintic percentage, from which the anthelmintic effect was judged.

[5] = system: canine filaria; Dirofilaria immitis; test: Test of anthelmintic effect against canine filaria in naturally infected dogs, subcutaneous injection, microfilaria in blood and adult filaria at autopsy (Test Examples A10, B10, C10, D10); assay type: in vivo; details: for inhibition in vivo at 30 mg/kg: Dirofilaria immitis, sc, 240 h
Experimental: Eight dogs infected with canine filaria; Diro- filaria immitis (naturally infected dogs) were employed in groups each of two dogs.
The compounds provided for tests were Compound Nos. Al, A3 and A12. 20 mg of each was administered by subcutaneous injection per Kg of body weight to each of the two dogs as a suspension in 1% "Tween 80" solution once per day for three days. As control, 3 ml of the 1% "Tween 80" solution was subcutaneously injected into two dogs once per day for three days.
Before administration and on the 10th day after administration, 20 µl of earlobe blood of each dog was sampled and examined to determine the change in microfilaria (mf) according to the concentrated smear color method, and judgement on the effect on microfilaria (mf) was made. Judgement relating to adult filaria was made on the 10th day after the last administration by killing the dogs and carrying out autopsis.
30 mg of each compound was administered by subcutaneous injection per Kg of body weight to each of the two dogs as a suspension in 1% "Tween 80" solution once per day for three days. As control, 3 ml of the 1% "Tween 80" solution was subcutaneously injected into two dogs once per day for three days.
30 mg of each compound was administered by subcutaneous injection per Kg of body weight to each of two dogs as a suspension in 1% "Tween 80" solution once per day for three days. As control, 3 ml of the 1% "Tween 80" solution was subcutaneously injected to two dogs once per day for three days.
20 mg of each compound was administered by subcutaneous injection per kg of body weight once per day for three days to each of two dogs. These compounds were administered as a suspension in 1% "Tween 80" in the case of Compound No.Dl3 and as solutions dissolved in distilled water for injection in the case of Compounds Nos. D10 and D16, respectively. As control, 3 ml of the 1% "Tween 80" solution was subcutaneously injected into two dogs once per day for three days.

[6] = 1000 ppm in feed, chicken No. 1
[7] = 1000 ppm in feed, chicken No. 2

Row | SMILES | inhibition in vivo at 40 mg/kg [1] [%] | Anthelmintic effect after one day ([1]; chicken No.2) | Anthelmintic effect after one day ([1]; chicken No.3) | Anthelmintic effect after one day ([1]; chicken No.4) | Anthelmintic effect after one day ([1]; chicken No.5) | E.P.G. after 5 days ([2]; 250 ppm in feed, chicken No. 1) | anthelmintic effect ([2]; 250 ppm in feed, chicken No. 2) | E.P.G. after 5 days ([2]; 250 ppm in feed, chicken No. 2) | E.P.G. after 5 days [2, 6] | anthelmintic effect [2, 7] | E.P.G. after 5 days [2, 7] | inhibition in vivo at 250 ppm ([2]; 250 ppm in feed, chicken No. 1) [%] | inhibition in vivo at 1000 ppm [2, 6] [%] | other results
1 | C#CCON(CC#C)C(C)=O [Compound E1, N,O-dipropargyl-N-acetylhydroxylamine] | 100 | +++ (100%) | +++ (100%) | +++ (100%) | +++ (100%) | 0 | +++ (100%) | 0 | 0 | +++ (100%) | 0 | 100 | 100 | –
2 | C#CCON(CC#C)C(=O)CCCCCCCCCCCCCCCCC [Compound E11, N,O-dipropargyl-N-stearoyl- hydroxylamine] | 100 | +++ (100%) | +++ (100%) | +++ (100%) | +++ (100%) | 0 | +++ (100%) | 0 | 0 | +++ (100%) | 0 | 100 | 100 | –
3 | C#CCON(CC#C)C(=O)CCC [Compound E3, N,O-dipropargyl-N-butylylhydroxylamine] | 100 | +++ (100%) | +++ (100%) | +++ (100%) | +++ (100%) | 0 | +++ (100%) | 0 | 0 | +++ (100%) | 0 | 100 | 100 | –
4 | C#CCON(CC#C)C(=O)CCCCCCC/C=C\CCCCCCCC [Compound E6, N,O-dipropargyl-N-oleoylhydroxylamine] | 100 | +++ (100%) | +++ (100%) | +++ (100%) | +++ (100%) | 0 | +++ (100%) | 0 | 0 | +++ (100%) | 0 | 100 | 100 | –
5 | C#CCON(CC#C)C(=O)c1ccccc1Cl [Compound E8, N,O-dipropargyl-N-O-chlorobenzoylhydroxylamine] | 100 | +++ (100%) | +++ (100%) | +++ (100%) | +++ (100%) | 0 | +++ (100%) | 0 | 0 | +++ (100%) | 0 | 100 | 100 | –
6 | C#CCON(CC#C)C(=O)CCCC [Compound E4, N,O-dipropargyl-N-valerylhydroxylamine] | 100 | +++ (100%) | +++ (100%) | +++ (100%) | +++ (100%) | 0 | +++ (100%) | 0 | 0 | +++ (100%) | 0 | 100 | 100 | –
7 | C#CCON(CC#C)C(=O)CC [Compound E2, N,O-dipropargyl-N-propionylhydroxylamine] | 100 | +++ (100%) | +++ (100%) | +++ (100%) | +++ (100%) | 0 | +++ (100%) | 0 | 0 | +++ (100%) | 0 | 100 | 100 | –
8 | C#CCON(CC#C)C(=O)CCCCCCCCCCC [Compound E10, N,O-dipropargyl-N-lauroylhydroxylamine] | 100 | +++ (100%) | +++ (100%) | +++ (100%) | +++ (100%) | 0 | +++ (100%) | 0 | 0 | +++ (100%) | 0 | 100 | 100 | –
9 | C=CCON(CC=CC)C(C)=O [Compound C9] | – | – | – | – | – | – | – | – | – | – | – | – | – | inhibition in vivo at 30 mg/kg ([3]; 30 mg/Kg oral in gelatin capsule): 100%; inhibition in vivo at 50 mg/kg ([3]; 50 mg/Kg oral in gelatin capsule): 100%; inhibition in vivo at 25 ppm ([4]; Ascaridia galli, feed or water, 504 h, 25 ppm in feed, read-out: Anthelmintic effect): 100%; inhibition in vivo at 50 ppm ([4]; Ascaridia galli, feed or water, 504 h, 50 ppm in feed, read-out: Anthelmintic effect): 100%; Change of E.P.G. 21st day ([4]; 25 ppm in feed): 0; Change of E.P.G. 21st day ([4]; 50 ppm in feed): 0; inhibition in vivo at 30 mg/kg ([5]; dog, 30 mg/Kg x 3, subcutaneous injection, read-out: Effect on adult filaria: Percent of worms killed): 70%; inhibition in vivo at 30 mg/kg ([5]; dogs, administration of 30 mg/Kg repeated three times, given as about 50% or more, read-out: anthelmintic effect against adult filaria): ≥ 50%; Number of microfilaria/20 µl On 10th day after the last administration ([5]; dog, 30 mg/Kg x 3, subcutaneous injection, suspension in 1% Tween 80): 0 /20 µl; Effect on adult filaria: Number of worms killed/ Total parasite ([5]; dog, 30 mg/Kg x 3, subcutaneous injection, 30 mg/kg): 14/20 and 19/27; anthelmintic effect against microfilaria (mf) ([5]; dogs, administration of 30 mg/Kg repeated three times): marked anthelmintic effect
